# Source: ChEMBL document CHEMBL1159204, “Limonoids showing selective toxicity to DNA repair-deficient yeast and other constituents of Trichilia emetica” (J Nat Prod, 1998)
# Legend:
# Vero = assay: Cytotoxicity against african green monkey Vero cells; format: cell-based; details: Chlorocebus sabaeus
# Saccharomyces cerevisiae [1] = assay: DNA damaging activity against RS 188N (RAD+) yeast assessed as drug level required to produce 12 mm zone of inhibition; format: functional
# Saccharomyces cerevisiae [2] = assay: DNA damaging activity against DNA repair-deficient RS 322YK (rad 52Y) yeast assessed as drug level required to produce 12 mm zone of inhibition; format: functional
SMILES,IC50 (Vero),IC12 (Saccharomyces cerevisiae [1]),IC12 (Saccharomyces cerevisiae [2])
C=C1[C@@H]([C@@]2(C)[C@@H](OC(C)=O)C[C@@]3(O)OC[C@](C)(O3)[C@@H]2CC(=O)OC)[C@@H](OC=O)[C@H](OC(=O)C(O)C(C)CC)[C@@]2(C)[C@H](c3ccoc3)CC(=O)[C@]12O (stereo not given in full),12 µg/mL,100 µg/mL,0.9 µg/mL
CC[C@@]1(O)C(=O)OCc2c1cc1n(c2=O)Cc2cc3ccccc3nc2-1 [CAMPTOTHECIN],,110 µg/mL,0.6 µg/mL
